In patent publication US4015974A, “Amido phosphorothiolates” (priority 1972, dated 1977):

Key:
Format in all cases: in vivo
[1] = tested on: radish; test: Pre-emergence application, herbicidal effect on radish (Table 1); set-up: key: 0: not damaged; 5: completely killed; settings: 20 days after application, score 0-5
Method in brief: (§1)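 Pre-emergence soil treatment: seeds sown in pots of about 10 cm and covered with soil, then compounds applied as wettable powder diluted in water. Plants grown in a greenhouse; damage scored 20 days after application from 0 (not damaged) to 5 (completely killed).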

[2] = tested on: barnyard grass (Echinochloa crus-galli); test: Water application, herbicidal effect on barnyard grass (Table 2); set-up: key: 0: not damaged; 5: completely killed; settings: 25 days, score 0-5
Method in brief: (§2)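 Flooded paddy-soil pots with 3-leaf-stage transplanted rice and sown barnyard grass; wettable-powder compounds applied to soil under water. Herbicidal effect and rice phytotoxicity, also on spontaneously germinated broad-leaved weeds, scored 0–5 at 25 days after application.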

[3] = tested on: common lambsquarter (Chenopodium album); test: Pre-emergence application, herbicidal effect on common lambsquarter (Table 1); set-up: key: 0: not damaged; 5: completely killed; settings: 20 days after application, score 0-5
Method in brief: as §1

[4] = tested on: large crabgrass (Digitaria sanguinalis); test: Pre-emergence application, herbicidal effect on large crabgrass (Table 1); set-up: key: 0: not damaged; 5: completely killed; settings: 20 days after application, score 0-5
Method in brief: as §1

[5] = tested on: redroot pigweed (Amaranthus retroflexus); test: Pre-emergence application, herbicidal effect on redroot pigweed (Table 1); set-up: key: 0: not damaged; 5: completely killed; settings: 20 days after application, score 0-5
Method in brief: as §1

[6] = tested on: common purslane (Portulaca oleracea); test: Pre-emergence application, herbicidal effect on common purslane (Table 1); set-up: key: 0: not damaged; 5: completely killed; settings: 20 days after application, score 0-5
Method in brief: as §1

[7] = tested on: rice; test: Water application, phytotoxicity on rice (Table 2); set-up: key: 0: no effect; 1: very slightly affected; 2: slightly affected; 3: moderately affected; 4: considerably affected; 5: completely killed; settings: 25 days, score 0-5
Method in brief: as §2

[8] = tested on: broad-leaved weeds, e.g., monochoria, false pimpernel and toothcup; test: Water application, herbicidal effect on broad-leaved weeds (Table 2); set-up: key: 0: not damaged; 5: completely killed; settings: 25 days, score 0-5
Method in brief: as §2

[9] = tested on: barnyard grass (Echinochloa crus-galli); test: Pre-emergence application, herbicidal effect on barnyard grass (Table 1); set-up: key: 0: not damaged; 5: completely killed; settings: 20 days after application, score 0-5
Method in brief: as §1

Structure (SMILES)	Herbicidal effect, radish ([1]; 10 g./a.)	Herbicidal effect, radish ([1]; 20 g./a.)	Herbicidal effect, radish ([1]; 40 g./a.)	Herbicidal effects, barnyard grass ([2]; 10 g/a)	Herbicidal effects, barnyard grass ([2]; 20 g/a)	Herbicidal effects, barnyard grass ([2]; 40 g/a)	Herbicidal effect, common lambsquarter ([3]; 10 g./a.)	Herbicidal effect, common lambsquarter ([3]; 20 g./a.)	Herbicidal effect, common lambsquarter ([3]; 40 g./a.)	Herbicidal effect, large crabgrass ([4]; 10 g./a.)	Herbicidal effect, large crabgrass ([4]; 20 g./a.)	Herbicidal effect, large crabgrass ([4]; 40 g./a.)	Herbicidal effect, redroot pigweed ([5]; 10 g./a.)	Herbicidal effect, redroot pigweed ([5]; 20 g./a.)	Herbicidal effect, redroot pigweed ([5]; 40 g./a.)	Herbicidal effect, common purslane ([6]; 10 g./a.)	Herbicidal effect, common purslane ([6]; 20 g./a.)	Herbicidal effect, common purslane ([6]; 40 g./a.)	Phytotoxicity on rice ([7]; 10 g/a)	Phytotoxicity on rice ([7]; 20 g/a)	other results
CCOP(=O)(SC)SCC(=O)N1CCCCC1CC (stereo not drawn) [Compound 74]	0	1	2	5	5	5	5	5	5	5	5	5	5	5	5	5	5	5	0	0	Phytotoxicity on rice ([7]; 40 g/a): 0; Herbicidal effects, broad-leaved weeds ([8]; 10 g/a): 5; Herbicidal effects, broad-leaved weeds ([8]; 20 g/a): 5; Herbicidal effects, broad-leaved weeds ([8]; 40 g/a): 5; Herbicidal effect, barnyard grass ([9]; 10 g./a.): 5; Herbicidal effect, barnyard grass ([9]; 20 g./a.): 5; Herbicidal effect, barnyard grass ([9]; 40 g./a.): 5
CCCOP(=O)(SC)SCC(=O)N1CCCCC1C (stereo not drawn) [Compound 66]	0	0	1	5	5	5	5	5	5	5	5	5	5	5	5	5	5	5	0	0	Phytotoxicity on rice ([7]; 40 g/a): 0; Herbicidal effects, broad-leaved weeds ([8]; 10 g/a): 5; Herbicidal effects, broad-leaved weeds ([8]; 20 g/a): 5; Herbicidal effects, broad-leaved weeds ([8]; 40 g/a): 5; Herbicidal effect, barnyard grass ([9]; 10 g./a.): 5; Herbicidal effect, barnyard grass ([9]; 20 g./a.): 5; Herbicidal effect, barnyard grass ([9]; 40 g./a.): 5
CCCOP(=O)(SC)SCC(=O)N1CCCCC1CC (stereo not drawn) [Compound 83]	0	1	2	5	5	5	5	5	5	5	5	5	5	5	5	5	5	5	0	0	Phytotoxicity on rice ([7]; 40 g/a): 0; Herbicidal effects, broad-leaved weeds ([8]; 10 g/a): 5; Herbicidal effects, broad-leaved weeds ([8]; 20 g/a): 5; Herbicidal effects, broad-leaved weeds ([8]; 40 g/a): 5; Herbicidal effect, barnyard grass ([9]; 10 g./a.): 5; Herbicidal effect, barnyard grass ([9]; 20 g./a.): 5; Herbicidal effect, barnyard grass ([9]; 40 g./a.): 5
CCOP(=O)(SCC(=O)N1CCCCC1CC)SC(C)C (stereo not drawn) [Compound 76]	0	1	2	5	5	5	5	5	5	5	5	5	5	5	5	5	5	5	0	0	Phytotoxicity on rice ([7]; 40 g/a): 0; Herbicidal effects, broad-leaved weeds ([8]; 10 g/a): 5; Herbicidal effects, broad-leaved weeds ([8]; 20 g/a): 5; Herbicidal effects, broad-leaved weeds ([8]; 40 g/a): 5; Herbicidal effect, barnyard grass ([9]; 10 g./a.): 5; Herbicidal effect, barnyard grass ([9]; 20 g./a.): 5; Herbicidal effect, barnyard grass ([9]; 40 g./a.): 5
CCCCCSP(=O)(OCCCC)SCC(=O)N1CCCCC1CC (stereo not drawn) [Compound 98]	0	0	0	5	5	5	5	5	5	5	5	5	4	5	5	4	5	5	0	0	Phytotoxicity on rice ([7]; 40 g/a): 0; Herbicidal effects, broad-leaved weeds ([8]; 10 g/a): 5; Herbicidal effects, broad-leaved weeds ([8]; 20 g/a): 5; Herbicidal effects, broad-leaved weeds ([8]; 40 g/a): 5; Herbicidal effect, barnyard grass ([9]; 10 g./a.): 5; Herbicidal effect, barnyard grass ([9]; 20 g./a.): 5; Herbicidal effect, barnyard grass ([9]; 40 g./a.): 5
